# Source: patent publication US7718385B2, “Bioactivation of alkylating agents for cancer treatment” (priority 2003, dated 2010)
# Legend:
# A549/ATCC = settings: cited from earlier work
# SK-MEL-5 = settings: SK-MEL-5, Melanoma, cited from earlier work
# COLO 205 = settings: COLO 205, Colon, cited from earlier work
# SK-OV-3 = settings: SK-OV-3, Ovarian, cited from earlier work
# SR = settings: cited from earlier work
# CCRF-CEM = settings: cited from earlier work
# MALME-3M = settings: cited from earlier work
# NCI-H322M = settings: cited from earlier work
# OVCAR-4 = settings: OVCAR-4, Ovarian, cited from earlier work
# SNB-75 = settings: SNB-75, Central Nervous System, cited from earlier work
# KM12 = settings: KM12, Colon, cited from earlier work
# recombinant AOR = target: T1, recombinant AOR (Rattus norvegicus, UniProt P97584, Q160G/Q263G/Q264G/Q276G); test: LC/MS/MS of enzymatic and nonenzymatic GSH adducts; assay type: biochemical; settings: incubations with AOR, GSH and NADPH, 1 h, 37° C.
# T1 construct: made in house
# Method: High Performance Liquid Chromatography with Tandem Mass Spectrometry (LC/MS/MS) of GSA Adducts. […] These reactions were incubated at 37° C. for 1 h. Controls lacking NAFPH were performed. Reactions were stopped and deproteinized with addition of 400 μl of ice-cold acetonitrile, spun at 3500×g for 10 min at 4° C., and the supernatants were evaporated to dryness under vacuum. Residual GSH and NADPH cofactors were removed using an Oasis C18 sample prep column (Waters Chromatography). Adducts were eluted with methanol, evaporated to dryness under vacuum, resuspended in […] of 0.1% acetic acid, and detected using liquid chromatography electrospray ionization tandem mass spectrometry performed in the positive ion mode. […] A flow rate of 0.1 ml/min and gradient of 0% buffer D (70% acetic acid (0.1%):30% acetonitrile) to 100% buffer E (20% acetic acid (0.1%):80% acetonitrile) over 30 min were used to resolve the compounds. Adducts were detected by monitoring for selected molecular ions or characteristic molecular fragments after MS/MS. Molecular fragments were obtained with 35% relative collusion energy.
# Measuring GSH adduction is a commonly used technique for estimating covalent protein binding, and thus cytotoxicity, of a drug (Baillie and Kassahun, 2001). The nucleophilic thiol moiety of GSH effectively scavenges electrophilic molecules and its large size and charge prevent it from entering the active site of most enzymes. […] Daughter ions of adducts, which represent the loss of water (−18 m/z) or […] (−129 m/z), were common and monitored for in these experiments following MS/MS.
# Enzymatic reduction occurred in incubations containing recombinant AOR, NADPH, and GSH, while companion nonenzymatic reductions lacked NADPH. […] However the NE irofulven-GSH adduct (FIG. 5B) was detected only after monitoring for a daughter ion (M+—H2)=536 m/z) and was 42-fold less abundant than the E adduct. […] Contrary to findings with irofulven, a great deal of NE illudin M-GSH adduct was detected in NADPH-deficient incubations.
# recombinant rat AOR = recombinant rat AOR (Rattus norvegicus, UniProt P97584, Q160G/Q263G/Q264G/Q276G)
# Method: Varied concentrations of illudin M were added to a 200 μl 0.5× phosphate buffered saline (PBS) solution containing 115 ng of AOR and 43.4 nmoles NADPH, and incubated for 1 minute at 37° C. Reactions were then extracted with ethyl acetate containing piperine (internal standard), dried under vacuum, resuspended in HPLC buffer A (60% acetonitrile: 40% water), and injected into a Hewlett-Packard 1050 HPLC system equipped with a Luna C18 column (Phenomenex Inc.). Metabolites were separated using buffer A at a flow rate of 1 ml/min and quantified using diode array detection at 205 nm and previously reported extinction coefficients (Tanaka, et al., 1990). Vmax and Km were calculated using the HYPER program.
# Rates were quantified from metabolite peak areas using reported extinction coefficients (Tanaka, et al., 1990; McMorris, et al., 1999).
# ACHN = settings: Renal; cited from earlier work
# [1] = read-out: LC50, Non-Small Cell Lung
# Chain of recombinant rat AOR (P97584 whole entry Q160G/Q263G/Q264G/Q276G): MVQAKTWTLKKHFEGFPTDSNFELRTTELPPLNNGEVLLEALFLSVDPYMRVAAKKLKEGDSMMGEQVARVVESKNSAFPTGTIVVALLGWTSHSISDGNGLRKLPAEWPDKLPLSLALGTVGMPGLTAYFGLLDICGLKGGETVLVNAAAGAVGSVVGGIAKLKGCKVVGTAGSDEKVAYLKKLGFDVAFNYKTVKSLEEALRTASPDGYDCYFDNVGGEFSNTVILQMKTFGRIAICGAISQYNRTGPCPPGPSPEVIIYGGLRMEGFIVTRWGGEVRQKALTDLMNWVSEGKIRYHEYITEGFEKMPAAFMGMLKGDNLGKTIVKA
# T1 sequence (P97584 whole entry Q160G/Q263G/Q264G/Q276G): as above
smiles,measurement,setting,value
"CC1=C(CO)C2=C(C)C3(CC3)[C@@](C)(O)C(=O)C2=C1 [Irofulven, 6-hydroxymethylacylfulvene]",GI50,A549/ATCC; Non-Small Cell Lung,0.126 µM
same,TGI,A549/ATCC; Non-Small Cell Lung,1.58E−06
same,log(GI50),A549/ATCC; Non-Small Cell Lung,−6.9
same,log(TGI),A549/ATCC; Non-Small Cell Lung,−5.8
same,CC50,A549/ATCC; [1],≥ 100 µM
same,GI50,SK-MEL-5,0.158 µM
same,TGI,SK-MEL-5,3.98E−07
same,log(GI50),SK-MEL-5,−6.8
same,log(LC50),SK-MEL-5,−6
same,log(TGI),SK-MEL-5,−6.4
same,CC50,SK-MEL-5; read-out: LC50,1 µM
same,GI50,COLO 205,0.158 µM
same,TGI,COLO 205,5.01E−07
same,log(GI50),COLO 205,−6.8
same,log(LC50),COLO 205,−6.2
same,log(TGI),COLO 205,−6.3
same,CC50,COLO 205; read-out: LC50,0.631 µM
same,GI50,SK-OV-3,0.251 µM
same,TGI,SK-OV-3,1.00E−06
same,log(GI50),SK-OV-3,−6.6
same,log(LC50),SK-OV-3,−5
same,log(TGI),SK-OV-3,−6
same,CC50,SK-OV-3; read-out: LC50,10 µM
same,GI50,SR; Leukemia,0.794 µM
same,TGI,SR; Leukemia,1.00E−04
same,log(GI50),SR; Leukemia,−6.1
same,log(TGI),SR; Leukemia,−4
same,CC50,"SR; read-out: LC50, Leukemia",≥ 100 µM
same,GI50,CCRF-CEM; Leukemia,2 µM
same,TGI,CCRF-CEM; Leukemia,3.16E−05
same,log(GI50),CCRF-CEM; Leukemia,−5.7
same,log(TGI),CCRF-CEM; Leukemia,−4.5
same,CC50,"CCRF-CEM; read-out: LC50, Leukemia",≥ 100 µM
same,GI50,MALME-3M; Melanoma,0.2 µM
same,TGI,MALME-3M; Melanoma,5.01E−07
same,log(GI50),MALME-3M; Melanoma,−6.7
same,log(LC50),MALME-3M; Melanoma,−5.6
same,log(TGI),MALME-3M; Melanoma,−6.3
same,CC50,"MALME-3M; read-out: LC50, Melanoma",2.51 µM
same,GI50,NCI-H322M; Non-Small Cell Lung,0.251 µM
same,TGI,NCI-H322M; Non-Small Cell Lung,6.31E−07
same,log(GI50),NCI-H322M; Non-Small Cell Lung,−6.6
same,log(LC50),NCI-H322M; Non-Small Cell Lung,−4.9
same,log(TGI),NCI-H322M; Non-Small Cell Lung,−6.2
same,CC50,NCI-H322M; [1],12.6 µM
same,GI50,OVCAR-4,0.251 µM
same,TGI,OVCAR-4,6.31E−07
same,log(GI50),OVCAR-4,−6.6
same,log(LC50),OVCAR-4,−4.6
same,log(TGI),OVCAR-4,−6.2
same,CC50,OVCAR-4; read-out: LC50,25.1 µM
same,GI50,SNB-75,0.2 µM
same,TGI,SNB-75,5.01E−07
same,log(GI50),SNB-75,−6.7
same,log(LC50),SNB-75,−5.7
same,log(TGI),SNB-75,−6.3
same,CC50,SNB-75; read-out: LC50,2 µM
same,GI50,KM12,0.631 µM
same,TGI,KM12,2.51E−06
same,log(GI50),KM12,−6.2
same,log(LC50),KM12,−4.9
same,log(TGI),KM12,−5.6
same,CC50,KM12; read-out: LC50,12.6 µM
same,abundance of E (enzymatic) GSH adduct over NE (nonenzymatic) adduct,recombinant AOR,42 fold
same,Vmax,recombinant rat AOR,275 nmol/min/mg
same,decrease in the rate of metabolism by AOR,recombinant rat AOR; relative to the illudins,100 fold
same,GI50,ACHN,0.251 µM
same,TGI,ACHN,1.00E−06
same,log(GI50),ACHN,−6.6
same,log(TGI),ACHN,−6
